According to patent publication US20210403924A1, “Method for selecting cells based on CRISPR/Cas-mediated integration of a detectable tag to a target protein” (Hoffmann-La Roche Inc., priority 2018, published 2021):
Structures can show the parent of a compound that is named as a salt.

Key:
[1] = test system: HEK293A wild-type cells; experiment: CellTiter-Glo cell viability assay, titration of antibiotic concentrations (killing curve); type: cell-based, human; details: HEK293A wild-type cells
Procedure: (§1) HEK293A wild-type cells were treated for 72 h with various concentrations of the antibiotics (a) hygromycin B and (b) puromycin, respectively. Cell viability was determined with the CellTiter-Glo assay.
(§2) The CellTiter-Glo assay was used to determine the number of viable cells in a sample. The method is based on the quantification of the ATP amount as an indicator of metabolically active cells. The CellTiter-Glo Luminescent Cell Viability Assay Kit from Promega was used for the experiments. The CellTiter-Glo reagent was freshly prepared before each experiment. For this purpose, the substrate, which contains inter alia luciferin and a luciferase, was dissolved in the accompanying buffer. After direct addition to the medium of the cells, lysis of the cells occurs first. Viable cells produce ATP in their mitochondria, which is thereby released. In the presence of ATP, the luciferin is converted by the UltraGlo r-luciferase. This produces a stable luminescence signal which is proportional to the amount of ATP present and thus to the number of viable cells.
(§3) The assay was used to optimize transfection and to titrate the optimal antibiotic concentrations of hygromycin B and puromycin for post-transfection selection. In all assays, cells were seeded in a black flat bottom 96-well plate with a transparent bottom. When titrating the antibiotic concentrations, 7,500 cells were seeded per well. The next day, the cells were treated with various concentrations of the antibiotic. After […], the viability of the cells was determined by the assay in which 100 μL of the CellTiter-Glo reagent was added to each well. Subsequently, the plate was shaken on a plate shaker for 2 min. at 200 rpm. After incubation in the dark for 10 minutes, the luminescence signal was measured on the luminometer.

[2] = as above; type: cell-based, human; details: human
Procedure: as §1, §2, §3

Row | Compound | cell viability ([1]; 20 μg/mL, 72 h) | cell viability expected at selection concentration ([1]; 50 μg/mL) | viability at 72 h, 2 μg/mL ([2]; cell viability) [%] | viability at 72 h, 2 μg/mL ([2]; cell viability expected at selection concentration) [%]
1 | CN[C@H]1C[C@@H](N)[C@H](O)[C@@H](O[C@@H]2O[C@H](CO)[C@H](O)[C@@H]3OC4(O[C@H]23)O[C@H]([C@@H](N)CO)[C@H](O)[C@H](O)[C@H]4O)[C@@H]1O (stereo partly shown) [hygromycin B, Hygromycin B] | less than 20% | about 12% | – | –
2 | COc1ccc(C[C@H](N)C(=O)N[C@H]2[C@@H](O)[C@H](n3cnc4c(N(C)C)ncnc43)O[C@@H]2CO)cc1 [puromycin, Puromycin dihydrochloride] | – | – | < 15 | ~12
